Experimental data from the supplement of paper PMC5844555.

What was measured:
Experiment in all cases: 3' UTR reporter interaction score (median-centred robust z-score of log2 firefly/Renilla activity); higher = less repression of the 3' UTR reporter
Settings in all cases: HEK293T; 48 h
MYB = test system: MYB
Summary of the method: (§1)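 Using DharmaFECT Duo, HEK293T cells (10,000/well, 96-well plates) were co-transfected with 2.5 pmol miRNA mimic, 100 ng firefly luc2P reporter containing the gene's 3' UTR and 20 ng Renilla pRL-TK control, and dual-luciferase activity was read 48 h later. The interaction score is the log firefly/Renilla ratio as a per-plate robust z-score (median, median absolute deviation), median-centred per miRNA, averaged over at least two independent screens; lower, more negative values indicate interaction.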

PHF6 = test system: PHF6
Summary of the method: as §1

EZH2 = test system: EZH2
Summary of the method: as §1

HRAS = test system: HRAS
Summary of the method: as §1

TP53 = test system: TP53
Summary of the method: as §1

MYT1L = test system: MYT1L
Summary of the method: as §1

BRCA2 = test system: BRCA2
Summary of the method: as §1

FBXW7 = test system: FBXW7
Summary of the method: as §1

PHOX2B = test system: PHOX2B
Summary of the method: as §1

MYC = test system: MYC
Summary of the method: as §1

RB1 = test system: RB1
Summary of the method: as §1

MYCN = test system: MYCN
Summary of the method: as §1

NOTCH1 = test system: NOTCH1
Summary of the method: as §1

ZEB2 = test system: ZEB2
Summary of the method: as §1

Row | Sequence | 3' UTR reporter interaction score (MYB) | 3' UTR reporter interaction score (PHF6) | 3' UTR reporter interaction score (EZH2) | 3' UTR reporter interaction score (HRAS) | 3' UTR reporter interaction score (TP53) | 3' UTR reporter interaction score (MYT1L) | 3' UTR reporter interaction score (BRCA2) | 3' UTR reporter interaction score (FBXW7) | 3' UTR reporter interaction score (PHOX2B) | 3' UTR reporter interaction score (MYC) | 3' UTR reporter interaction score (RB1) | 3' UTR reporter interaction score (MYCN) | 3' UTR reporter interaction score (NOTCH1) | 3' UTR reporter interaction score (ZEB2)
1 | UAACACUGUCUGGUAACGAUGU | 0.219 | 1.8 | -0.274 | 0.337 | -0.247 | -5.06 | 0.575 | 0.00413 | -0.223 | -0.268 | 0.104 | -0.465 | 0.173 | -5.66
2 | UAACAGUCUACAGCCAUGGUCG | 0.1 | -0.351 | 1.32 | 0.64 | -1.07 | 1 | -0.186 | -0.629 | -0.125 | 0.473 | -1.41 | 0.783 | -0.392 | -0.631
3 | UAACAGUCUCCAGUCACGGCC | -1.89 | -0.767 | 0.108 | -0.229 | -0.811 | 1.02 | -0.504 | 0.973 | -0.145 | -0.0995 | -2.21 | 0.167 | -0.389 | 1.77
4 | UAAGGUGCAUCUAGUGCAGAUA | 0.537 | -0.951 | 0.286 | -0.481 | 0.495 | 0.136 | -0.222 | 0.264 | -0.0776 | 0.199 | -0.171 | -0.0167 | 0.283 | -0.0823
5 | UAAGGUGCAUCUAGUGCAGUUA | 0.34 | -1.71 | 0.311 | -0.399 | 0.488 | -0.221 | -0.228 | -0.313 | 0.37 | 0.863 | -0.473 | 0.0551 | 0.564 | -0.449
6 | UAAGUGCUUCCAUGUUUCAGUGG | -0.991 | 0.57 | -0.665 | 0.114 | -0.245 | -1.46 | 0.202 | 0.421 | -0.0319 | -0.0462 | 0.571 | 0.305 | 0.788 | 0.969
7 | UAAGUGCUUCCAUGUUUGAGUGU | -0.941 | -0.0188 | -0.327 | 0.22 | -0.124 | -0.74 | -0.334 | 0.795 | 0.566 | -0.0168 | 0.167 | 0.678 | 0.935 | 1.47
8 | UAAGUGCUUCCAUGUUUUAGUAG | -0.833 | 0.487 | -0.765 | 0.314 | 0.0485 | -1.12 | -0.649 | 0.557 | -0.86 | -0.0722 | 0.351 | 0.56 | 1.36 | 1.24
9 | UAAGUGCUUCCAUGUUUUGGUGA | -1.01 | 0.733 | -0.457 | -0.478 | -0.0784 | -1.44 | -0.208 | 0.567 | 0.453 | -0.0521 | 1.03 | 0.317 | 1.18 | 1.55
10 | UAAUACUGCCGGGUAAUGAUGG | -1.24 | 0.321 | 0.453 | -0.939 | 0.205 | 1.25 | -0.155 | -0.707 | -0.44 | 0.778 | 0.254 | -0.263 | -0.992 | -2.81
11 | UAAUACUGUCUGGUAAAACCGU | -2.29 | 0.422 | 0.716 | 0.264 | 0.0543 | 0.747 | -0.165 | -1.04 | -0.137 | 0.8 | 0.612 | 0.575 | -1.39 | -6.85
12 | UAAUCUCAGCUGGCAACUGUG | -0.952 | 0.579 | -0.0854 | 0.474 | -0.775 | -0.796 | 1.06 | -0.0147 | 0.207 | 0.197 | -0.947 | 0.412 | -0.148 | 0.502
13 | UAAUGCCCCUAAAAAUCCUUAU | -1.05 | 2.31 | 0.868 | -0.275 | -0.124 | 0.18 | 1.14 | 1.16 | 0.54 | 0.136 | -0.537 | -0.732 | -0.347 | -2.81
14 | UACAGUACUGUGAUAACUGAAG | 0.694 | -0.261 | -3.4 | 0.843 | -0.59 | 0.686 | 0.0293 | -3.92 | 0.00398 | 0.128 | 0.982 | -3.49 | -1.33 | -0.268
15 | UACAGUAGUCUGCACAUUGGUU | -0.118 | -0.669 | -0.827 | -0.926 | -1.16 | 3.26 | 0.551 | 0.408 | -0.571 | 0.385 | 2 | 0.292 | -0.605 | 1.83
16 | UACAGUAUAGAUGAUGUACUAG | 1.2 | 0.845 | 0.0925 | -0.991 | 0.564 | 0.926 | -0.483 | -1.17 | 1.45 | -0.27 | 0.00103 | -0.388 | 0.141 | 0.857
17 | UACCCAUUGCAUAUCGGAGUUG | -1.15 | -2.43 | -0.072 | 0.189 | 0.729 | -2.74 | 1.65 | 1.03 | -0.552 | 1.45 | 0.632 | -0.434 | 0.783 | -2.65
18 | UACCCUGUAGAACCGAAUUUGU | 0.245 | 0.333 | 1.07 | 0.849 | -0.546 | -2.07 | 0.189 | -0.174 | -0.86 | 0.546 | -0.148 | -0.116 | -1.66 | -1.8
19 | UACCCUGUAGAUCCGAAUUUGUG | 0.0301 | -0.356 | 1.17 | 1.04 | -0.88 | -2.08 | 0.0748 | -0.445 | -1.36 | 0.449 | 0.397 | -0.296 | -2.62 | -1.18
